In patent US20060002870A1 (priority 2004, published 2006):

Tested on: skin
Assay: Clinical study of intensity and tonality of self-tanning with merospheres, empty liposomes and ursolic acid (Chromameter, forearms)
Assay type: in vivo, human
Conditions: added to 3% DHA, 5% pentylene glycol; 5 hours and 24 hours; FIG. 7
Protocol: This clinical study is designed to investigate the intensity and tonality of self-tanning with a formulation containing different combination of merospheres, empty liposomes and ursolic acid. The following materials are tested: A total of […] panelists participate in the study. The panel is divided in seven groups of 7-8 corresponding to the seven test materials. The panelists apply the “control” formulation containing 3% DHA-PG on the right arm and the assigned test material on the other arm. For each panelist exact amounts (800 μl each) of the test materials are dispensed on the forearms and blended in by the panelists. Color measurements are obtained with the Chromameter before treatment and 5 hours and 24 hours. Decrease in reflectance and increase in red coloration and yellow coloration (ΔL*, Δa* and Δb* values) obtained from the Chromameter are calculated as compared to baseline skin color. Total color change ΔE* is calculated for each time point as follows: ΔE*={overscore (V(ΔL*)^2+(Δa*)^2+(Δb)}*)^2 For assessing the tonality, Chroma (ΔC*) is calculated and plotted against reflectance (ΔL* values) within the “Natural Universe of Tan”. This Natural Universe is the range of color of tan obtained by multiple or single exposures to the sun.

`C[C@H]1[C@H](C)CC[C@]2(C(=O)O)CC[C@]3(C)C(=CC[C@@H]4[C@@]5(C)CC[C@H](O)C(C)(C)[C@@H]5CC[C@]43C)[C@H]12` [ursolic acid] was tested, and the “Self-tanning effect (ΔE*)” value was “neither addition of empty liposomes nor ursolic acid alone changes the self-tanning effect”.
